In ChEMBL document CHEMBL1145977, “Synthesis and dopamine receptor modulating activity of 3-substituted gamma-lactam peptidomimetics of L-prolyl-L-leucyl-glycinamide” (J Med Chem, 2003):

Assays:
Format in all cases: functional
[1] = target: T1, Dopamine receptor (Rattus norvegicus) (UniProt P25115+P19020+P30729+P18901+P61169); test: Dopamine receptor modulating activity of compound was evaluated by rat nigrostriatal 6-hydroxydopamine lesion rotation model at dose of 0.1 ug/kg given intraperitoneally
[2] = target: T1, Dopamine receptor (Rattus norvegicus); test: Dopamine receptor modulating activity of compound was evaluated by rat nigrostriatal 6-hydroxydopamine lesion rotation model at dose of 1 ug/kg given intraperitoneally
Bos taurus = organism: Bos taurus; test: Percent enhancement of [3H]NPE binding to bovine striatal membranes at 100 nM concentration; conditions: Striatum, Membrane

Row | Compound | Enhancement (Bos taurus) | further results
1 | NC(=O)[C@H]1CS[C@@H]2C[C@@H](NC(=O)[C@@H]3CCCN3)C(=O)N12 | – | Enhancement [1]: 23%
2 | NC(=O)[C@H]1CS[C@@H]2C[C@@](Cc3ccccc3)(NC(=O)[C@@H]3CCCN3)C(=O)N12 | – | Enhancement [2]: 30%
3 | CCCC[C@@]1(NC(=O)[C@@H]2CCCN2)CCN(CC(N)=O)C1=O | 89% | –
4 | CC(C)C[C@@]1(NC(=O)[C@@H]2CCCN2)CCN(CC(N)=O)C1=O | 59% | –
5 | NC(=O)CN1CC[C@@H](NC(=O)[C@@H]2CCCN2)C1=O | 36% | –
6 | NC(=O)CN1CC[C@@](Cc2ccccc2)(NC(=O)[C@@H]2CCCN2)C1=O | 116% | –
7 | CC(C)C[C@@]1(NC(=O)[C@@H]2CCCN2)C[C@H]2SC[C@H](C(N)=O)N2C1=O | – | Enhancement [2]: 44%
8 | CCCC[C@@]1(NC(=O)[C@@H]2CCCN2)C[C@H]2SC[C@H](C(N)=O)N2C1=O | – | Enhancement [1]: 56%
